The subject of one assay is hamsters. The experiment in a line: antifertility activity in hamsters by oral route. Conditions: Mesocricetus auratus; for inhibition in vivo at 10 mg/kg: oral dosage of 10 mg/kg, read-out: reduction of live fetuses; for ED50: po, absence of live fetuses in 50% of the animals. Type of assay: in vivo, hamster. The protocol: (§1) Representative experiments for assessing antifertility activity were carried out with female Syrian golden hamsters weighing 100 to 130 g. The animals were mated and the presence of sperm in the vagina was taken as evidence of mating. […] Pregnancy was later confirmed at the time of autopsy by presence of fetuses or implantation sites in the uterus. Even if an animal aborts the fetus, implantation scars still remain as evidence that the animal has been pregnant.
(§2) The animals were autopsied on day 14 of pregnancy and the uteri were examined for evidence of pregnancy (implantation sites, fetal resorptions or live fetuses), hemorrage, and evidence of abnormalities of the uterus, placenta or fetuses.
The experiments for assessing this property were carried out on hamsters following the same procedure as above, with the obvious exception that the compounds were administered orally instead of subcutaneously.

The test system of assay [1] is female Sprague-Dawley rats. The experiment in a line: anti-reproductive activity in rats, subcutaneous. Type of assay: in vivo, Sprague-Dawley rat. The settings on record: Rattus norvegicus, sc; for responders at 20 mg/kg: 384 h, 20 mg/kg s.c. for five days from day 6 of pregnancy, sesame oil, autopsy day 16, read-out: reduction of live fetuses (share of treated rats). On the procedure:
as §1, §2
The same criteria and experimental conditions as above were also applied when the anti-reproductive activity of the compounds of the invention was investigated in other animal species such as, for instance, rats, dogs, monkeys and baboons. In representative experiments, female Sprague-Dawley rats weighing from 200 to 300 g. were treated subcutaneously with a dosage of 20 mg/kg of the compound to be tested, dissolved in sesame oil, for five consecutive days starting from day 6 of pregnancy.

For assay [2], the system named is female Syrian golden hamsters. The experiment in a line: post-coital-post-implantation antifertility activity in hamsters, subcutaneous. Format: in vivo, Syrian golden hamster. Conditions: for ED50: Mesocricetus auratus, sc. The protocol: as §1, §2
Where [3] appears, read: hamsters, 100% activity (absence of live fetuses) in 50% of the animals, read-out: ED50.

Each structure is given as a SMILES string. Read-outs that look alike come from different tables or passages of the source.

As for `COc1cccc(-c2n[nH]c(-c3ccc(C)cc3C)n2)c1` [Example 26, 5-(2,4-Dimethylphenyl)-3-(m-methoxyphenyl)-1H-1,2,4-triazole], the inhibition in vivo at 10 mg/kg in the assay on hamsters was roughly 60%. Moreover, the responders at 20 mg/kg in assay [1] was no less than 60%. In addition, in assay [2] (setting [3]), the ED50 came out at 0.04 mg/kg.
For `COc1cccc(-c2n[nH]c(-c3ccccc3C)n2)c1` [Example 1, 3-(m-Methoxyphenyl)-5-(o-tolyl)-1H-1,2,4-triazole], the inhibition in vivo at 10 mg/kg in the assay with hamsters is roughly 60%. Also, the ED50 turned out to be 5 mg/kg with hamsters, 1 mg/kg in assay [1] (absence of live fetuses in 50% of the animals) and 0.08 mg/kg in assay [2] (setting [3]). Also, in assay [1], the responders at 20 mg/kg was no less than 60%.
For `CCc1ccccc1-c1nc(-c2ccc(OC)cc2)n[nH]1` [Example 36, 5-(o-Ethylphenyl)-3-(p-methoxyphenyl)-1H-1,2,4-triazole], the ED50 with hamsters turned out to be 5 mg/kg; in assay [2] (setting [3]), 0.15 mg/kg.
Consider `C=CCOc1cccc(-c2n[nH]c(-c3ccccc3CC)n2)c1` [Example 13, 3-(m-Allyloxyphenyl)-5-(o-ethylphenyl)-1H-1,2,4-triazole], for which the median effective dose (ED50) in assay [2] (setting [3]) turned out to be 0.1 mg/kg.
In assay [2], `c1ccc(-c2n[nH]c(-c3ccccc3)n2)cc1` [3,5-diphenyl-1H-1,2,4-triazole, reference compound] came in with an ED50 of 6 mg/kg. In addition, the “antifertility activity relative to the compounds of the invention” value in assay [2] (hamsters, 10 mg/kg s.c. daily for 5 days (days 4-8 of pregnancy), comparison) is recorded as “much less active”.
Take `CCOc1cccc(-c2n[nH]c(-c3ccccc3CC)n2)c1` [Example 35, 3-(m-Ethoxyphenyl)-5-(o-ethylphenyl)-1H-1,2,4-triazole]: the ED50 with hamsters came to 3 mg/kg; in assay [2] (setting [3]) it was 0.04 mg/kg.
Regarding `Cc1ccc(-c2nc(-c3ccccc3)n[nH]2)c(C)c1` [Example 25, 5-(2,4-Dimethylphenyl)-3-phenyl-1H-1,2,4-triazole], in the assay on hamsters, the inhibition in vivo at 10 mg/kg was roughly 60%. In addition, the responders at 20 mg/kg in assay [1] was no less than 60%. Also, the ED50 in assay [2] (setting [3]) amounted to 0.2 mg/kg.
For the compound `CCOc1cccc(-c2n[nH]c(-c3ccccc3C)n2)c1` [Example 9, 3-(m-Ethoxyphenyl)-5-(o-tolyl)-1H-1,2,4-triazole], in assay [2] (setting [3]), the ED50 turned out to be 0.07 mg/kg.
Regarding `COc1cccc(-c2n[nH]c(-c3ccc(Cl)cc3C)n2)c1` [Example 30, 5-(4-Chloro-2-methylphenyl)-3-(m-methoxyphenyl)-1H-1,2,4-triazole], the inhibition in vivo at 10 mg/kg in the assay on hamsters was roughly 60%. The results for the ED50 (in the assay on hamsters; in assay [2] (setting [3])) were 5 mg/kg and 0.04 mg/kg, respectively. Besides, the responders at 20 mg/kg in assay [1] was no less than 60%.
Take `COc1cccc(-c2n[nH]c(-c3cc(Cl)ccc3C)n2)c1` [Example 32, 5-(5-Chloro-2-methylphenyl)-3-(m-methoxyphenyl)-1H-1,2,4-triazole]: in the assay on hamsters, the inhibition in vivo at 10 mg/kg is roughly 60%. The responders at 20 mg/kg in assay [1] was no less than 60%. The ED50 in assay [2] (setting [3]) was 0.35 mg/kg.
In the case of `CCc1ccccc1-c1nc(-c2cccc(F)c2)n[nH]1` [Example 18, 5-(o-Ethylphenyl)-3-(m-fluorophenyl)-1H-1,2,4-triazole], the inhibition in vivo at 10 mg/kg with hamsters is roughly 60%. Besides, the responders at 20 mg/kg in assay [1] was no less than 60%. The ED50 in assay [2] (setting [3]) was determined as 0.4 mg/kg.
Turning to `COc1cccc(-c2n[nH]c(-c3ccc(OC)cc3C)n2)c1` [Example 34, 5-(4-Methoxy-2-methylphenyl)-3-(m-methoxyphenyl)-1H-1,2,4-triazole], the ED50 in assay [2] (setting [3]) amounted to 0.2 mg/kg.
In the case of `Cc1cc(Cl)ccc1-c1nc(-c2ccccc2)n[nH]1` [Example 29, 5-(4-Chloro-2-methylphenyl)-3-phenyl-1H-1,2,4-triazole], the inhibition in vivo at 10 mg/kg with hamsters was roughly 60%. Besides, the responders at 20 mg/kg in assay [1] is no less than 60%. In addition, the ED50 in assay [2] (setting [3]) was 0.14 mg/kg.
The like results for `COc1ccccc1-c1n[nH]c(-c2ccccc2C)n1` [Example 4, 3-(o-Methoxyphenyl)-5-(o-tolyl)-1H-1,2,4-triazole] were, in that order, roughly 60%, no less than 60% and 0.5 mg/kg.
Take `CCc1ccccc1-c1nc(-c2ccc(OC)c(OC)c2)n[nH]1` [Example 37, 5-(o-Ethylphenyl)-3-(3,4-dimethoxyphenyl)-1H-1,2,4-triazole]: the median effective dose (ED50) in assay [2] (setting [3]) is 0.05 mg/kg.
The same measure, in the same setting: the same measure for `C=CCOc1cccc(-c2n[nH]c(-c3ccccc3C)n2)c1` [Example 10, 3-(m-Allyloxyphenyl)-5-(o-tolyl)-1H-1,2,4-triazole]: 0.25 mg/kg.
With `CCc1ccccc1-c1nc(-c2ccc3c(c2)OCO3)n[nH]1` [Example 22, 5-(o-Ethylphenyl)-3-(3,4-methylenedioxyphenyl)-1H-1,2,4-triazole], in the assay with hamsters, the inhibition in vivo at 10 mg/kg was roughly 60% and the ED50 came out at 3 mg/kg. Further, the responders at 20 mg/kg in assay [1] is no less than 60%. Further, the ED50 in assay [2] (setting [3]) was determined as 0.03 mg/kg.

As a reminder, the ED50 is the midpoint of the dose-response relation.

Source of the values: patent US4370336A, “3,5-Disubstituted-1H-1,2,4-triazole derivatives as antifertility agents” (priority 1981, dated 1983).
